One test deals with plasma miRNA of mdx mice. Nature of the test: Whole-genome plasma miRNA expression profiling (small RNA sequencing) in mdx mice. It counts as in vivo, mouse (C57BL/10ScSn-Dmd^mdx/J). The note with it: Givinostat 37.5 mg/kg vs vehicle. On the procedure: Blood samples were taken from the retro-orbital plexus of mice maintained under isoflurane anesthesia. Blood was placed in tubes containing 50 μL (for 1 mL of total blood) of EDTA ([…]) and then it was centrifuged at 13,300 rpm at + 4 °C for 10 min. Plasma was separated (400–500 μL) and immediately frozen in dry ice and stored at − 80 °C until analysis.
Thirteen mouse plasma samples (naive wt, n = 3; naive mdx, n = 3; vehicle, n = 4; Givinostat 37.5 mg/kg, n = 3) were delivered to Biogazelle in dry ice.
RNA was isolated using the miRNeasy Serum/Plasma Kit (Qiagen) following the manufacturer’s instructions.
Libraries for small RNA sequencing were prepared using the NEBNext small RNA library prep kit (New England Biolabs) according to the manufacturer’s instructions. […] Finally, the resulting small RNA pools were concentrated via ethanol precipitation and quantified using the Qubit 2.0 fluorometer (Thermo Fisher Scientific) prior to sequencing with read length of 75 bp on a NextSeq 500 sequencer (Illumina).
Sequencing reads were filtered based on stringent read quality control. After adapter trimming with Trimmomatic, reads were collapsed and mapped to the reference genome (GRCm38) using Bowtie. Reads up to 25 nucleotides are mapped with no mismatches, while longer reads (mainly from RNA species other than miRNAs) are mapped allowing a maximum of 2 mismatches. […]

Another test deals with mdx mice. Nature of the test: Treadmill run to exhaustion test in mdx mice. It counts as in vivo, mouse (C57BL/10ScSn-Dmd^mdx/J). The note with it: for Distance run: 37.5 mg/kg p.o. The text has this:
For the efficacy studies, C57BL/10 J (Stock No: 000665) wild type (wt) and C57BL/10ScSn-Dmd^mdx/J (Stock No: 001801) 7–8-week-old male mice, DBA/2J wt (Stock No: 000671), and D2.B10-Dmd^mdx/J (Stock No: 013141) 6–7-week-old male mice were purchased from The Jackson Laboratories (Bar Harbor, Maine, USA). After 5 days of acclimatization in the animal facility, mice were randomized into different treatment groups based on their BW. C57BL/10J wt mice were assigned to the naive wt group (healthy mice that received no treatment, but were subjected to functional tests), whereas mdx mice were assigned to the following groups (9 mice/group; 4–5 mice/cage): naive mdx (mice that received no treatment, but were subjected to functional tests), vehicle (0.5% methylcellulose, p.o.), and Givinostat (0.1, 0.3, 1, 5, 10, 25, and 37.5 mg/kg, p.o.). DBA/2J mice were assigned to the naive wt group (healthy mice that received no treatment, but were subjected to functional tests), whereas D2.B10 mice were assigned to the following groups (12–13 mice/group; 4–5 mice/gage): vehicle (filtered tap water, p.o.), Givinostat (1, 5, 10, and 37.5 mg/kg, p.o.), prednisone 1 mg/kg, and Deflazacort 1 mg/kg (i.p.).
In the efficacy studies, Givinostat powder (ITF2357) was suspended in 0.5% methylcellulose (Sigma-Aldrich) and administered p.o. (by gavage) at the doses of 0.1, 0.3, 1, 5, 10, 25, and 37.5 mg/kg qdx5x15weeks (administration volume per mouse: 10 mL/kg) in mdx mice (see Additional Figure 1A). Vehicle-treated mdx mice received 0.5% methylcellulose suspension. Givinostat suspension was stored at + 4 °C, and it was freshly prepared every 7 days. Probably due to the impairment of their tongue and masticatory muscles, the oral gavage procedure turned out to be difficult to perform, and chronic treatment of D2.B10 mice by this route was considered to bear a high risk of damaging the esophagus. For this reason, Givinostat was administered in the drinking water. Givinostat was dissolved in filtered tap water and was administered in drinking water (throughout 24 h) for 105 days at the dose of 1, 5, 10, and 37.5 mg/kg/day, according to a daily estimate of water consumption of 4 ml/mouse/day. Water consumption was weekly monitored throughout the entire duration of the study weighing the bottle of each cage (maximum 4 mice per cage). Prednisone and Deflazacort powder (Sigma-Aldrich) was dissolved in 2% DMSO (Sigma-Aldrich) and diluted in sterile saline on injection days. Both drugs were administered weekly (for 15 weeks) by i.p. injection at the dose of 1 mg/kg in a volume of 10 mL/kg. Givinostat and steroid treatments started on days 7 and 9 of the experimental plan, respectively (see Additional Figure 1B). All mice were monitored daily and tolerability was evaluated on the basis of BW and clinical signs.
Run to exhaustion performance of mdx and D2.B10 mice was evaluated every 14 or 21 days, respectively, using a treadmill apparatus (Ugo Basile SRL, Italy). The exhaustion protocol consisted in an initially horizontal running at 5 m/min for 5 min after which the speed was increased 1 m/min every minute until exhaustion (the procedure was compliant with the standard operating procedures of TREAT–NMD Neuromuscular Network). The test was concluded when mice remained for more than 10 s on the shocker plate (for both C57BL/10 J and mdx mice) or when D2.B10 mice reached a maximum number of shocks. Due to the excessive stress caused to D2.B10 mice by this functional test, a maximum number of 600 and 150 shocks was set. These experimental conditions were also applied to the DBA/2J wt healthy mice.
After taking baseline readings for behavioral assays (FNmax and distance run by the animals), mice were re-randomized based on these two parameters, also considering the previous randomization performed on their BW.
The grip strength and run to exhaustion tests were performed during the light-cycle phase, in the early hours of the morning (8:00–11:30 am). […]

Take `CCN(CC)Cc1ccc2cc(COC(=O)Nc3ccc(C(=O)NO)cc3)ccc2c1` [Givinostat]: the “miR-92b-3p in plasma, FC” value with plasma miRNA of mdx mice (T16, significant upregulation) is listed as 2.130. Moreover, the “miR-449a-5p in plasma, FC” value in the test on plasma miRNA of mdx mice (T16, significantly upregulated) is given as 4.388. Also, the Distance run was found to be 785 ± 97 m in the test on mdx mice (day 31), 693 ± 103 m with mdx mice (day 44) and 410 ± 40 m in the test on mdx mice (day 94). Further, the “Lowest effective dose on time to exhaustion” value in the test with mdx mice (day 94) is listed as 0.3 mg/kg. The Time to exhaustion result in the test on mdx mice (highest dose (37.5 mg/kg), day 94, vs vehicle) is listed as “significantly prolonged the time to exhaustion”. Further, the “Distance run, significance of doses lower than 37.5 mg/kg” value in the test with mdx mice (lower doses, trend of dose-response) is given as “did not reach significance”.

For the origin of these results see PMC8296708, “The pan HDAC inhibitor Givinostat improves muscle function and histological parameters in two Duchenne muscular dystrophy murine models expressing different haplotypes of the LTBP4 gene” (Skeletal Muscle, 2021).
